Assay results published in patent US20160151408A1, “NOVEL THERAPY FOR MULTIPLE SCLEROSIS USING VITAMIN D AND GUT BACTERIA” (California Institute of Technology, priority 2012, published 2016).

Assays:
EAE = conditions: refs [6,8], [31,32]; cited from earlier work
CD4+Foxp3+ T cells = experiment: Mouse DC / CD4+ T cell co-culture, Foxp3+ TREG induction; type: cell-based
Experimental: (§1) FIG. 5, panels A-C. Graphs and plots showing vitamin D augments the ability of PSA to promote TREGS. (FIG. 5, panel A) Mouse BMDCs were stimulated with PSA (or PBS), and Cyp27b1 transcript levels were measured by qRT-PCR. PSA induces the expression of Cyp27b1 from WT, but not TLR2−/− DCs. (FIG. 5, panel B) Mouse DCs were treated with PSA, washed and co-cultured with naïve CD4+ T cells. After 4 days, PSA increased Foxp3+TREGS (see % in red box). The vitamin D metabolite 25D augmented PSA-induced TREGS. (FIG. 5, panel C) Human monocytes were treated with PSA or vehicle, washed and co-cultured with CD4+ T cells from PBMCs of the same donor. The MR for Foxp3 among CD4+CD25+ T cells is shown, with or without TGFβ.
(§2) Next tested was whether vitamin D enhanced the ability of PSA to induce Foxp3+ TREG cells in vitro. BMDCs treated with PSA or PBS, with or without 25D, were incubated with CD4+ T cells from the spleens of mice. […] The Hewison group has described […] expression of CYP27B1 in human DCs, and has shown the effects of vitamin D on human TREG development in vitro [11]. However, the ability of PSA to induce human Foxp3+ TREG cells has not been reported. […] These studies further link PSA-induced TREGS to the vitamin D pathway. Thus, PSA and vitamin D may promote human TREG cells.

[1] = system: Foxp3 among CD4+CD25+ T cells; experiment: Human monocyte / CD4+ T cell co-culture, Foxp3 expression; type: cell-based
Experimental: as §1, §2

Cyp27b1 [2] = experiment: Cyp27b1 transcript levels in PSA-stimulated BMDCs (qRT-PCR); type: cell-based, Mouse
Experimental: as §1
As described, the ability of PSA to protect against colitis & EAE in mice involves Foxp3+ TREGS [8,48]. The inventors recognize that vitamin D may play a pivotal role in microbial-induced TREGS, given the ability of 1,25D to promote TREG generation and the novel findings that PSA induces the vitamin D-system. First, the cell type that is responsible for PSA-dependent conversion of 25D to active 1,25D was made. The inventors have shown that PSA activates DCs, which prime TREG responses.

[3] = system: experimental autoimmune encephalomyelitis (EAE); experiment: EAE clinical scores in mice on normal or vitamin D-deficient diet; type: in vivo, C57BL/6 mice
Experimental: FIG. 2, panels A-D. Graphs showing germ-free (GF) mice are attenuated in EAE. Female C57B1/6 mice were immunized subcutaneously (s.c.) with 150 μg MOG35-55 peptide with 200 μg of Complete Freund's adjuvant (CFA). On the same day and 2 days later, mice were injected intraperitoneally (i.p.) with 150 ng/mouse of pertussis toxin. (FIG. 2, panel A) Clinical EAE scores of SPF (dark symbols) and GF (light symbols). Data are representative of three independent experiments. (FIG. 2, panel B) Proportions of SPF and GF mice that develop various degrees of EAE, as assessed by clinical score. Results are combined from 4 experiments, with a total of 20 for SPF and 22 for GF mice. (FIG. 2, panel C) IFNγ and IL-17A cytokine ELISA analysis of cells harvested from draining lymph nodes of SPF and GF mice 8 days after immunization with MOG/CFA and cultured for 3 days in vitro with MOG peptide. (FIG. 2, panel D) CD4+CD25+Foxp3+ T cells at day 15 post-immunization. Cells were cultured for 3 days with MOG peptide, and analyzed by flow cytometry. Data from Lee et al., PANS, 2011 [2].
FIG. 6. […]
To asses EAE in mice, mice can be evaluated daily for signs of disease. The clinical course of the EAE can be scored according to the severity as follows: 0=no obvious signs of disease, 0.5=partial tail weakness (cannot raise tail against gravity), 1=limp tail, 1.5=limp tail and hindlimb weakness, 2=limp tail and impairment in righting reflex, 2.5=limp tail and hindlimb paresis (as determined by gait abnormality), 3=bilateral hindlimb paralysis, 3.5=bilateral hindlimb paralysis and forelimb paresis (as determined by in ability of the mouse to strongly grasp cage bars with the fore paws when placed on top), 4=moribund, 5=dead. […] Reduced symptoms of EAE can be evaluated by comparing clinical scores.
PSA protects mice from EAE [8]; however, it is unknown whether PSA protection requires vitamin D. To address whether PSA may serve as a viable therapy for vitamin D deficient MS patients, mice on vitamin D sufficient and deficient diets were raised, EAE was induced, and PSA's protective effects were assessed.

colitis = conditions: refs [4,5,22]; cited from earlier work
Cyp27b1 [4] = experiment: Colonic Cyp27b1 mRNA by qRT-PCR in mice; conditions: mice on vitamin D deficient diet for 6 weeks, fed PSA for 2 weeks
VDR = VDR mRNA levels in colonic tissue of germ-free mice; conditions: oral gavage of GF animals

Compound: C=C1/C(=C\C=C2/CCC[C@]3(C)[C@@H]([C@H](C)CCCC(C)(C)O)CC[C@@H]23)C[C@@H](O)C[C@@H]1O [1,25D, 1,25-dihydroxyvitamin D3, reference compound]
- EAE disease (literature) (EAE): protected from disease

Compound: C=C1CC[C@H](O)C/C1=C/C=C1\CCC[C@]2(C)[C@@H]([C@H](C)CCCC(C)(C)O)CC[C@@H]12 [25D, 25-hydroxyvitamin-D3, reference compound]
- PSA-induced CD4+Foxp3+ T cells, effect of co-treatment (CD4+Foxp3+ T cells; BMDCs treated with PSA with 25D): enhanced by co-treatment with 25D

Compound: TGFβ [reference compound]
- PSA-mediated TREG cells, effect of added TGFβ ([1]; with TGFβ): does not further enhance PSA-mediated TREG cells

Compound: polysaccharide A [PSA]
- Cyp27b1 expression from BMDCs (Cyp27b1 [2]; TLR2−/− DCs): did not respond to PSA
- Cyp27b1 expression from BMDCs (Cyp27b1 [2]; WT bone marrow-derived dendritic cells): induces Cyp27b1 expression
- proportions of CD4+Foxp3+ T cells in culture (CD4+Foxp3+ T cells; BMDCs treated with PSA, co-cultured with CD4+ T cells, 4 days): increases the proportions of CD4+Foxp3+ T cells in culture
- Foxp3 expression in human TREGS ([1]; monocytes treated with PSA, co-cultured with CD4+ T cells from PBMCs of the same donor): promotes Foxp3 expression in human TREGS in vitro
- interaction of PSA with vitamin D in EAE protection ([3]; PSA groups on sufficient versus deficient diet): synergizes with vitamin D during protection from EAE
- EAE clinical score at the peak of disease ([3]; day 14, vitamin D sufficient and deficient diets, PSA 100 μg/dose orally 3×/week): protected from EAE
- EAE clinical score during the remission phase ([3]; day 20-35, vitamin D sufficient diet versus deficient, PSA 100 μg/dose orally 3×/week): attenuated in disease during the remission phase if they were fed vitamin D sufficient diets
- EAE disease (literature) (EAE): ameliorates and treats EAE
- colitis (literature) (colitis): prevents and treats colitis in mice
- colonic Cyp27b1 expression (Cyp27b1 [4]): induces increased colonic Cyp27b1
- expression of VDR in the colon (VDR): increases expression of VDR
